O=C(Nc1ccc(Cl)cc1)Nc1ccc(Cl)c(Cl)c1
solubility (mole fraction)
Conditions | 288.15 K | 293.15 K | 298.15 K | 303.15 K | 308.15 K | 313.15 K | 318.15 K
in 1,4-dioxane | 0.00103 | 0.00176 | 0.00239 | 0.00403 | 0.00658 | 0.00931 | 0.0141
in cyclohexane | 1.68e-07 | 2.73e-07 | 4.23e-07 | 7.31e-07 | 1.17e-06 | 1.82e-06 | 2.72e-06

Reference: BigSolDB 2.1
